This is an account of results in patent US20110046220A1, “PARABEN COMPOUNDS” (CENTRE NATIONAL DE LA RECHERCHE SCIENTIFIQUE, priority 2007, published 2011).

In brackets after ≈: the same amount, converted by molar mass. Several values for one entry are separate records, joined by “and”; a condition that tells them apart may be missing. Identical values can stand only once. Like-named read-outs stand apart in the source and are kept apart here. Where only a bound is given, the exact number is not on record here.

Holding throughout (assay type): cell-based
The subject of experiment [1] is Staphylococcus aureus strain ATCC 6538. As to the kind of experiment: MIC determination by twofold dilution in microplates against Staphylococcus aureus. The settings on record: for MIC: Staphylococcus aureus. As to the method:
Antimicrobial activity was tested by inhibition of growth of Gram positive bacteria Staphylococcus aureus strain ATCC 6538. All extracts and bacterial isolates from the sponge were screened for this antibacterial activity. Extracts and bacterial strains were also tested against gram negative gamma-proteobacteria (including Vibrios) and alpha-proteobacteria (Rhodobacterales), against Gram positive Bacillales (including Bacillus sp.) and against the yeast Candida albicans.
MICs of each of the compounds 1-9 according to the invention and of commercial methyl- and propyl parabens of the prior art were determined by a twofold dilution method from an initial 100 μg/mL concentration. […] Microplates were incubated for 24 hours at 30° C. with shaking (500 rpm) and optical density at 600 nm was read to estimate bacterial growth. The methyl- and propyl parabens of the prior art were obtained from the company Interchimie in Bobigny, France. […]
The results are reported in the following table 3 in which the MIC is reported in μg/ml and expressed, as in table 1, as the interval a-b, where a is the highest concentration tested at which microorganism are growing and b the lowest concentration that causes 100% growth inhibition.

Experiment [2] concerns Staphylococcus aureus (ATCC 6538). As to the kind of experiment: MBC determination by subculturing wells with no visible growth onto agar plates. Particulars: for MBC/MIC ratio / bactericidal or bacteriostatic effect (from MBC/MIC ratio): S. aureus; for MBC: Staphylococcus aureus, ATCC6538. As for the experimental part: MBCs were determined to estimate bacterial survival in wells with no visible growth after 24 h by subculturing onto agar plates to count the number of colony-forming-units (CFU/mL).
In order to determine whether the growth inhibition observed against S. aureus was relevant either of a bactericidal or a bacteriostatic effect, the ratio MBC/MIC was calculated.

Experiment [3] concerns Microbulbifer sp. strain L4-N2. As to the kind of experiment: Antibiotic resistance/sensitivity of bacteria of the strain L4-N2. The settings on record: kanamycine 30UI; ceftazidime 30 μg. As for the experimental part: Bacteria of the strain L4-N2 are gram negative, aerobic, rod-shaped, and approximately 1 μm wide by 5 to 7 μm long. They form smooth, convex and mucoid colonies, and produce a non-diffusible brown pigment. They use glucose and display beta-galactosidase, catalase, and gelatinase activities. They are resistant to ampicillin, penicillin and oxacillin and sensitive to kanamycine (30UI) and ceftazidime (30 μg).

Setting [4] is: ATCC6538, S. aureus ATCC 6538, 24 hours at 30° C., interval a-b (a highest concentration with growth, b lowest with 100% growth inhibition), triplicate, read-out: MIC.
Where [5] appears, read: ATCC6538, S. aureus ATCC 6538, 24 hours at 30° C., interval a-b, triplicate, read-out: MIC.
The mark [6] stands for this setting: S. aureus ATCC 6538, lowest concentration yielding colony counts <0.1% of the initial inoculum, read-out: MBC.

The MIC is the lowest concentration found to suppress growth. As a reminder, the MBC is the smallest concentration meeting the test's criterion for killing. With `CCOC(=O)c1ccc(O)cc1` [Compound 1, 4-Hydroxy-benzoic acid ethyl ester], the figures for the MIC in experiment [1] (setting [4]) and in experiment [1] (setting [5]) were greater than 602 µM and greater than 100 µg/mL, respectively. In addition, the MBC/MIC ratio in experiment [2] is given as greater than 16. For the same compound, the MBC in experiment [2] (setting [6]) was greater than 100 µg/mL.
On to `CCCCOC(=O)c1ccc(O)cc1` [Compound 2, 4-Hydroxy-benzoic acid butyl ester], for which the MIC in experiment [1] (ATCC6538, 24 h) was 129 µM to 258 µM and 25 µg/mL to 50 µg/mL. In experiment [2], the MBC/MIC ratio was greater than 16 and the MBC was greater than 100 µg/mL.
Consider `CCCCCCCCOC(=O)c1ccc(O)cc1` [Compound 3, 4-Hydroxy-benzoic acid octyl ester], for which the MIC in experiment [1] (setting [4]) was 100 to 200 µM. Besides, the MIC in experiment [1] (setting [5]) fell in the range of 25 to 50 µg/mL. Also, in experiment [2], the MBC/MIC ratio was 2 and the “bactericidal or bacteriostatic effect (from MBC/MIC ratio)” value was “bactericidal (If MBC/MIC is less than 4, the compound is bactericidal)”. Besides, the MBC in experiment [2] (setting [6]) lay within 50 to 100 µg/mL (≈ 200 to 399 µM).
Regarding `CCCCCCCCCCOC(=O)c1ccc(O)cc1` [Compound 4, 4-Hydroxy-benzoic acid decyl ester], the MIC in experiment [1] (setting [4]) was in the range of 2.8 to 5.6 µM. In addition, the MIC in experiment [1] (setting [5]) fell in the range of 0.78 to 1.56 µg/mL. Also, in experiment [2], the MBC/MIC ratio worked out at 16; the “bactericidal or bacteriostatic effect (from MBC/MIC ratio)” value is “bacteriostatic (if MBC/MIC is between 8 and 16 and above 16, the compound is bacteriostatic)”. The MBC in experiment [2] (setting [6]) was 12.5 to 25 µg/mL (≈ 44.9 to 89.8 µM).
For `CCCCCCCC(O)CCOC(=O)c1ccc(O)cc1` (stereo not shown) [Compound 5, 4-Hydroxy-benzoic acid 3-hydroxy-decyl ester], the MIC lay in the range of 85 to 170 µM in experiment [1] (setting [4]) and 25 to 50 µg/mL in experiment [1] (setting [5]). In addition, the MBC/MIC ratio in experiment [2] is listed as greater than 16. Also, in experiment [2] (setting [6]), the minimum bactericidal concentration (MBC) is greater than 100 µg/mL.
Take `CC(C)CCCCCCCCOC(=O)c1ccc(O)cc1` [Compound 6]: the MIC in experiment [1] (setting [4]) is 42.8 to 85.6 µM. The MIC in experiment [1] (setting [5]) lay in the range of 12.5 to 25 µg/mL. Also, in experiment [2], the MBC/MIC ratio was 2 and the “bactericidal or bacteriostatic effect (from MBC/MIC ratio)” value is on record as “bactericidal (If MBC/MIC is less than 4, the compound is bactericidal)”. In experiment [2] (setting [6]), the MBC is 25 to 50 µg/mL (≈ 85.5 to 171 µM).
Consider `CC(C)CCCCCC(O)CCOC(=O)c1ccc(O)cc1` (stereo not shown) [Compound 7], for which the values for the MIC in experiment [1] (setting [4]) and in experiment [1] (setting [5]) were 40.5 to 81.1 µM and 12.5 to 25 µg/mL, respectively. For the same compound, the MBC/MIC ratio in experiment [2] came to 2. Also, in experiment [2], the “bactericidal or bacteriostatic effect (from MBC/MIC ratio)” value is given as “bactericidal (If MBC/MIC is less than 4, the compound is bactericidal)”. Also, the MBC in experiment [2] (setting [6]) was 25 to 50 µg/mL (≈ 81.1 to 162 µM).
As for `CCCCCCCCCCCCOC(=O)c1ccc(O)cc1` [Compound 8, 4-Hydroxy-benzoic acid dodecyl ester], the MIC lay within 81.6 to 163 µM in experiment [1] (setting [4]) and 25 to 50 µg/mL in experiment [1] (setting [5]). The MBC/MIC ratio in experiment [2] is given as greater than 16. In addition, in experiment [2] (setting [6]), the MBC is greater than 100 µg/mL.
On to `CCCCCC/C=C/CCCCOC(=O)c1ccc(O)cc1` [Compound 9, 4-Hydroxy-benzoic acid dodec-5-enyl ester], for which, in experiment [1] (S. aureus, compared MIC values), the “factor of enhancement of antimicrobial activity by unsaturation of the alkyl chain (compound 9 vs compound 8)” value amounted to 4. In addition, the MIC in experiment [1] (setting [4]) was in the range of 20.5 to 41.1 µM. In addition, the MIC in experiment [1] (setting [5]) lay within 6.25 to 12.5 µg/mL. In addition, in experiment [2], the MBC/MIC ratio is 8; the “bactericidal or bacteriostatic effect (from MBC/MIC ratio)” value was “bacteriostatic (if MBC/MIC is between 8 and 16 and above 16, the compound is bacteriostatic)”. Moreover, the MBC in experiment [2] (setting [6]) lay in the range of 50 to 100 µg/mL (≈ 164 to 328 µM).
As for `COC(=O)c1ccc(O)cc1` [Methyl paraben, reference compound], the MIC in experiment [1] (setting [4]) lay within 329 to 658 µM; in experiment [1] (setting [5]), 50 to 100 µg/mL. Moreover, the MBC in experiment [2] (setting [6]) was greater than 100 µg/mL.
Take `CCCOC(=O)c1ccc(O)cc1` [Propyl paraben, reference compound]: the minimum inhibitory concentration (MIC) was in the range of 278 to 556 µM in experiment [1] (setting [4]) and 50 to 100 µg/mL in experiment [1] (setting [5]). In addition, in experiment [2] (setting [6]), the MBC is greater than 100 µg/mL.
`CC1(C)S[C@@H]2[C@H](NC(=O)[C@H](N)c3ccccc3)C(=O)N2[C@H]1C(=O)O` [ampicillin]: in experiment [3], the “resistance or sensitivity of strain L4-N2 bacteria to the antibiotic” value was “resistant”.
The same measure, in the same setting: under `CC(C)(O/N=C(\C(=O)N[C@@H]1C(=O)N2C(C(=O)[O-])=C(C[n+]3ccccc3)CS[C@H]12)c1csc(N)n1)C(=O)O` [ceftazidime] stands “sensitive”; under `NC[C@H]1O[C@H](O[C@H]2[C@H](O)[C@@H](O[C@H]3O[C@H](CO)[C@@H](O)[C@H](N)[C@H]3O)[C@H](N)C[C@@H]2N)[C@H](O)[C@@H](O)[C@@H]1O` [kanamycine], “sensitive”.
Same read-out and setting: under `Cc1onc(-c2ccccc2)c1C(=O)N[C@@H]1C(=O)N2[C@@H]1SC(C)(C)[C@@H]2C(=O)O` [oxacillin] stands “resistant”; under penicillin, “resistant”.
